Laboratory results published in ChEMBL document CHEMBL4130359, “Indazole-based ligands for estrogen-related receptor α as potential anti-diabetic agents” (Eur J Med Chem, 2017).
The source made the active and inactive calls. The rule behind the calls is not given here.

What was measured:
Rattus norvegicus [1] = experiment: Toxicity in […] chronic ob/ob model assessed as brown adipose tissue weight at 50 mg/kg, po qd for 31 days measured on day 32 (reference value: 0.59 +/- 0.05 g); format: organism-based; conditions: in vivo, 744 h
[2] = Cmax in Zucker rat sub-chronic fa/fa prediabetic model at 10 mg/kg, po qd measured on day 1 post dose; format: ADME, organism-based; design: dose 10 mg/kg, route oral; conditions: in vivo
Rattus norvegicus [3] = experiment: Antidiabetic activity in Zucker rat sub-chronic fa/fa prediabetic model assessed as increase in serum adiponectin level at 50 mg/kg, po qd for 4 days by ELISA relative to control; format: functional
[4] = Oral bioavailability in Sprague-Dawley rat at 10 mg/kg administered via gavage by LC-MS analysis; format: ADME, organism-based; conditions: in vivo
Rattus norvegicus [5] = experiment: Toxicity in Zucker rat sub-chronic fa/fa prediabetic model assessed as serum cholesterol level at 50 mg/kg, po qd for 31 days measured on day 32 (reference value: 295 +/- 91 mg/dl); format: organism-based; conditions: in vivo, 744 h
[6] = Half life in Sprague-Dawley rat at 2 mg/kg, iv by LC-MS analysis; format: ADME, organism-based; conditions: in vivo
Rattus norvegicus [7] = experiment: Effect on ALDH3B1 gene expression in epididymal white adipose tissue of Zucker rat sub-chronic fa/fa prediabetic model at 10 mg/kg, po qd for 15 days by microarray analysis relative to control; format: functional
[8] = molecular target: Steroid hormone receptor ERR2 (Homo sapiens, UniProt O95718); experiment: Antagonist activity at recombinant GST-tagged human ERRbeta LBD assessed as inhibition of fluorescein-labeled coactivator peptide recruitment preincubated with enzyme followed by coactivator addition by LanthaScreen TR-FRET assay
Chain of Steroid hormone receptor ERR2 (O95718 whole entry, the tested form may be a part): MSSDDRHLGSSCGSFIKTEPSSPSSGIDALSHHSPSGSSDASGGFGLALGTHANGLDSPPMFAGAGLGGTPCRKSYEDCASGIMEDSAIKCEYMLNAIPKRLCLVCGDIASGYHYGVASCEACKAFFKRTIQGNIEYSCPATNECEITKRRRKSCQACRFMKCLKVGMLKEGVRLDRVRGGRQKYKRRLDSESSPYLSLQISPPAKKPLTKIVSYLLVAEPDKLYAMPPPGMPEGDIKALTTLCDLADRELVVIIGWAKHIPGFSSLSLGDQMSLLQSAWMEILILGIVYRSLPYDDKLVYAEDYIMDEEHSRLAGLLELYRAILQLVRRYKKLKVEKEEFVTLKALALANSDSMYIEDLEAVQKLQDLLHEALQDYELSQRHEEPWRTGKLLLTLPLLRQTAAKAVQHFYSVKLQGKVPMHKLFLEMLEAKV

Rattus norvegicus [9] = experiment: Effect on IMPA2 gene expression in epididymal white adipose tissue of Zucker rat sub-chronic fa/fa prediabetic model at 10 mg/kg, po qd for 15 days by microarray analysis relative to control; format: functional
Rattus norvegicus [10] = format: functional, Zucker
Rattus norvegicus [11] = experiment: Toxicity in Zucker rat sub-chronic fa/fa prediabetic model assessed as brown adipose tissue weight at 50 mg/kg, po qd for 31 days measured on day 32 (reference value: 2.1 +/- 0.3 g); format: organism-based; conditions: in vivo, 744 h
Rattus norvegicus [12] = experiment: Toxicity in […] chronic ob/ob model assessed as brown adipose tissue weight at 3 mg/kg, po qd for 31 days measured on day 32 (reference value: 0.59 +/- 0.05 g); format: organism-based; conditions: in vivo, 744 h
Rattus norvegicus [13] = experiment: Antidiabetic activity in Zucker rat sub-chronic fa/fa prediabetic model assessed as fasting blood glucose level at 50 mg/kg, po qd for 31 days measured on day 29 post dose (reference value: 163 +/- 9.2 mg/dl); format: functional
Rattus norvegicus [14] = experiment: Toxicity in Zucker rat sub-chronic fa/fa prediabetic model assessed as liver weight at 1 mg/kg, po qd for 31 days measured on day 32 (reference value: 28 +/- 1.6 g); format: organism-based; conditions: in vivo, 744 h
Rattus norvegicus [15] = experiment: Effect on GBE1 gene expression in epididymal white adipose tissue of Zucker rat sub-chronic fa/fa prediabetic model at 10 mg/kg, po qd for 15 days by microarray analysis relative to control; format: functional
[16] = molecular target: Retinoic acid receptor RXR-alpha (Homo sapiens, UniProt P19793); experiment: Agonist activity at recombinant GST-tagged human RXRalpha LBD assessed as fluorescein-labeled coactivator peptide recruitment preincubated with enzyme followed by coactivator addition by LanthaScreen TR-FRET assay
Chain of Retinoic acid receptor RXR-alpha (P19793 whole entry, the tested form may be a part): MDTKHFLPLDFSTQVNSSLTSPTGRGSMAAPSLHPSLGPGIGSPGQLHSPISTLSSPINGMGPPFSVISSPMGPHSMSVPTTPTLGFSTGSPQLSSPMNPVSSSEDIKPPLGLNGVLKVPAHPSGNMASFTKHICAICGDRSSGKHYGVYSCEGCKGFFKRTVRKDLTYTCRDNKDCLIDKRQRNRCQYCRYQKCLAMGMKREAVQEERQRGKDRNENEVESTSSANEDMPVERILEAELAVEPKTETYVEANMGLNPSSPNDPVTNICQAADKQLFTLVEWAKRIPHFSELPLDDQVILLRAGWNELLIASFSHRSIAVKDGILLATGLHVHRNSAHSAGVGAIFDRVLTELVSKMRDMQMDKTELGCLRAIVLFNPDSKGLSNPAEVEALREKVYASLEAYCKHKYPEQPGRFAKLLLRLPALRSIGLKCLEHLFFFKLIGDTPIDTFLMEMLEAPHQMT

[17] = AUC (0 to 24 hrs) in […] model at 10 mg/kg, po qd measured on day 1 post dose; format: ADME, organism-based; design: dose 10 mg/kg, time < 24 hr, route oral; conditions: in vivo
Rattus norvegicus [18] = experiment: Toxicity in […] model assessed as serum cholesterol level at 3 mg/kg, po qd for 31 days measured on day 32 (reference value: 195 +/- 5.5 mg/dl); format: organism-based; conditions: in vivo, 744 h
Rattus norvegicus [19] = experiment: Toxicity in […] chronic ob/ob model assessed as serum creatinine level at 3 mg/kg, po qd for 31 days measured on day 32 (reference value: 0.55 +/- 0.018 mg/dl); format: organism-based; conditions: in vivo, 744 h
[20] = Terminal half life in Sprague-Dawley rat at 10 mg/kg administered via oral gavage by LC-MS analysis; format: ADME, organism-based; conditions: in vivo, read-out: beta t1/2 (converted)
[21] = Tmax in ob/ob mouse at 18 mg/kg administered via oral gavage by LC-MS analysis; format: ADME, organism-based; conditions: in vivo
[22] = AUC (0 to 24 hrs) in Zucker rat sub-chronic fa/fa prediabetic model at 50 mg/kg, po qd for 26 days measured on day 26 post last dose; format: ADME, organism-based; design: dose 50 mg/kg, time < 24 hr, route oral; conditions: in vivo
Rattus norvegicus [23] = experiment: Increase in IDH3A mRNA expression in epididymal white adipose tissue of Zucker rat sub-chronic fa/fa prediabetic model at 10 mg/kg, po qd for 15 days by RT-PCR method; format: functional, organism-based
Rattus norvegicus [24] = experiment: Antidiabetic activity in Zucker rat sub-chronic fa/fa prediabetic model assessed as blood insulin AUC (0 to 120 min) at 1 mg/kg, po qd for 31 days measured on day 29 post dose (reference value: 1503 +/- 160 ug.min/L); format: functional, organism-based; design: time < 2 hr, dose 1 mg/kg
Rattus norvegicus [25] = experiment: Effect on CTGF gene expression in epididymal white adipose tissue of Zucker rat sub-chronic fa/fa prediabetic model at 10 mg/kg, po qd for 15 days by microarray analysis relative to control; format: functional
Rattus norvegicus [26] = experiment: Toxicity in Zucker rat sub-chronic fa/fa prediabetic model assessed as epididymal white adipose tissue weight at 50 mg/kg, po qd for 31 days measured on day 32 (reference value: 13.9 +/- 0.6 g); format: organism-based; conditions: in vivo, 744 h
Rattus norvegicus [27] = experiment: Effect on COX4I1 gene expression in epididymal white adipose tissue of Zucker rat sub-chronic fa/fa prediabetic model at 10 mg/kg, po qd for 15 days by microarray analysis relative to control; format: functional
Rattus norvegicus [28] = experiment: Toxicity in Zucker rat sub-chronic fa/fa prediabetic model assessed as serum AST level at 3 mg/kg, po qd for 31 days measured on day 32 (reference value: 187 +/- 37 U/L); format: organism-based; conditions: in vivo, 744 h
Rattus norvegicus [29] = format: functional, Zucker; remark: listed apart in the source
Rattus norvegicus [30] = experiment: Toxicity in Zucker rat sub-chronic fa/fa prediabetic model assessed as food intake at 10 mg/kg, po qd for 29 days measured on day 1 to 29 during compound dosing (reference value: 969 +/- 18 g); format: organism-based; conditions: in vivo, 696 h
Rattus norvegicus [31] = experiment: Toxicity in […] chronic ob/ob model assessed as brown adipose tissue weight at 10 mg/kg, po qd for 31 days measured on day 32 (reference value: 0.59 +/- 0.05 g); format: organism-based; conditions: in vivo, 744 h
[32] = molecular target: Estrogen-related receptor gamma (Homo sapiens, UniProt P62508); experiment: Antagonist activity at ERRgamma (unknown origin) assessed as inhibition of co-activator peptide recruitment by TR-FRET assay
Chain of Estrogen-related receptor gamma (P62508 whole entry): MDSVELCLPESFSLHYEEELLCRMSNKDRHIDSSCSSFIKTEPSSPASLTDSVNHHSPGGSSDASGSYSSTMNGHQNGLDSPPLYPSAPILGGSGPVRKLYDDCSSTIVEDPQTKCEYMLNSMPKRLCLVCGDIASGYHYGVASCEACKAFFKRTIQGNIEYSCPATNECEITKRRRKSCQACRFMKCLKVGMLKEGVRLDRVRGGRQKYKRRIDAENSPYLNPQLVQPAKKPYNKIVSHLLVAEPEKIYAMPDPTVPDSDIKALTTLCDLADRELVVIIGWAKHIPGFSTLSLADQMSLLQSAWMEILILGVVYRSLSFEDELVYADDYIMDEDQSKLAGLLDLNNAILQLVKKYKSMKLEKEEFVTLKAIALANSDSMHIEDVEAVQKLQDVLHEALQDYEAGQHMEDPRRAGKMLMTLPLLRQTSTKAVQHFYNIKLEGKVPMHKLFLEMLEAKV

[33] = Clearance in Sprague-Dawley rat at 2 mg/kg, iv by LC-MS analysis; format: ADME, organism-based; conditions: in vivo
[34] = Cmax in ob/ob mouse at 18 mg/kg administered via oral gavage by LC-MS analysis; format: ADME, organism-based; design: dose 18 mg/kg, route oral; conditions: in vivo
Rattus norvegicus [35] = experiment: Effect on GNPAT gene expression in epididymal white adipose tissue of Zucker rat sub-chronic fa/fa prediabetic model at 10 mg/kg, po qd for 15 days by microarray analysis relative to control; format: functional
Rattus norvegicus [36] = experiment: Effect on MAOB gene expression in epididymal white adipose tissue of Zucker rat sub-chronic fa/fa prediabetic model at 10 mg/kg, po qd for 15 days by microarray analysis relative to control; format: functional

CN1CC[C@@H](N2C(=O)S/C(=C\c3ccc4c(cnn4Cc4ccc(Cl)cc4C(F)(F)F)c3)C2=O)[C@H](F)C1
Activity (Rattus norvegicus [1]): 1.31 g | Cmax [2]: 1570 ng/mL | fold change (FC) (Rattus norvegicus [3]): 1.9 | bioavailability [4]: 84% | Activity (Rattus norvegicus [5]): 203 mg/dL | half-life [6]: 6 h | fold change (FC) (Rattus norvegicus [7]): -1.554 | IC50 [8]: > 10 µM | fold change (FC) (Rattus norvegicus [9]): 1.526 | Activity (Rattus norvegicus [10]): 17.3% | Activity (Rattus norvegicus [11]): 10.3 g | Activity (Rattus norvegicus [12]): 0.61 g | Activity (Rattus norvegicus [13]): 105 mg/dL | Activity (Rattus norvegicus [14]): 21.9 g | fold change (FC) (Rattus norvegicus [15]): 1.79 | EC50 [16]: > 10 µM | AUC(0-t) at 24 h [17]: 3940 ng·h/mL | Activity (Rattus norvegicus [18]): 171 mg/dL | Activity (Rattus norvegicus [19]): 0.5 mg/dL | half-life [20]: 4.7 h | Tmax [21]: 2 h | AUC at 24 h [22]: 85900 ng·h/mL | Activity (Rattus norvegicus [23]): Active | AUC (Rattus norvegicus [24]): 16.6 ng·h/mL | fold change (FC) (Rattus norvegicus [25]): 1.458 | Activity (Rattus norvegicus [26]): 19.3 g | fold change (FC) (Rattus norvegicus [27]): 1.323 | Activity (Rattus norvegicus [28]): 111 U/L | Activity (Rattus norvegicus [29]): 56958 mg·min/dL | Activity (Rattus norvegicus [30]): 1060 g | Activity (Rattus norvegicus [31]): 0.99 g | IC50 [32]: > 10 µM | clearance [33]: 23 mL/min/kg | Cmax [34]: 829 ng/mL | fold change (FC) (Rattus norvegicus [35]): 1.212 | fold change (FC) (Rattus norvegicus [36]): -1.452
